US12134769B2, “MicroRNA-198 as a tumor suppressor in ovarian cancer” (Baylor College of Medicine, priority 2011, dated 2024)

Tests used:
AsPC1 cells = assay: NF-κB inhibitor assay, OCT-2 expression; assay type: cell-based, human; conditions: FIG. 11B
MIA-MSLN cells = assay: NF-κB inhibitor assay, expression by real-time RT-PCR and western blot; assay type: cell-based, human
Procedure: Western blots were performed as previously described (Li et al., 2008). Membranes were probed with: anti-MSLN monoclonal antibody (1:1000) (Abcam); PBX-1 polyclonal antibody (1:1000) and Caspase 3 antibody (1:1000) (Cell Signaling); OCT-2 polyclonal antibody (1:400), and VCP polyclonal antibody (1:200) (Santa Cruz Biotechnology); or anti-β-actin, Tubulin, LaminA or GAPDH antibodies (1:10,000) (Sigma Aldrich). Secondary incubation was performed with horseradish peroxidase-linked secondary antibody (1:2,000) (anti-mouse, anti-goat or anti-rabbit) (Cell Signaling).
Differential expression of 95 miRNAs chosen for their potential roles in cancer, cell development, and apoptosis was analyzed by RT-PCR using the QuantiMir System from SBI System Biosciences in both MIA-V and MIA-MSLN cells. The array plate also included the U6 transcript as a normalization signal. cDNAs from different cell lines and tissue samples were mixed with SYBR® Green Mastermix (Bio-Rad Laboratories) plus the universal reverse primer. Specific primers (1 μl) were added to each well of the qPCR plate. Expression levels of each mature miRNA were evaluated using comparative threshold cycle (Ct) method as normalized to that of U6 (2—ΔCt). The expression level of miR-198 was measured in all subsequent experiments using the same method. Real-time RT PCR was performed as previously described for MSLN, ZEB1, PBX-1, and VCP (Li et al., 2008). The primer sequences used are as follows:
MIA-MSLN and MIA-V control cells were treated with 0, 12.5 or 25 μM of the IKK inhibitor Wedelolactone (Calbiochem). The cells were collected after 72 h and protein, RNA, and miRNA extracts were prepared and assayed accordingly.

With `COc1cc(O)c2c(c1)oc(=O)c1c3cc(O)c(O)cc3oc21` [Wedelolactone] the OCT-2 expression (AsPC1 cells) was “OCT-2 expression is blocked”, the ZEB1 expression (MIA-MSLN cells; MIA-MSLN cells) was “completely blocked ZEB1 expression” and the “increase in miR-198 expression” value (MIA-MSLN cells; MIA-MSLN cells, compared to untreated controls, 72 h) was ~17 fold. The OCT-2 expression (MIA-MSLN cells; MIA-MSLN cells, mRNA and protein levels) was “almost complete block in OCT-2 expression” and the PBX-1 expression (MIA-MSLN cells; Wedelolactone inhibition of NF-κB, FIG. 3F) was “downregulation of PBX-1 expression”.
